Experimental data: BindingDB's records for patent US20250074895 (Blueprint Medicines, 2025)

How the values were obtained:
[1] = target: Cyclin-dependent kinase 2/G1/S-specific cyclin-E1 (Homo sapiens, UniProt P24941); assay: Biochemical CDK Inhibition Assay
Experimental: (§1) nhibitory effects of the compounds of the disclosure were measured in biochemical assays that measure the enzymatic phosphorylation activity of CDK enzyme in complex of Cyclin proteins phosphorylates 7.5 micromolar fluorescently labelled peptide substrate, 5-FAM-QSPKKG-CONH2, (FL-Peptide 18, Perkin Elmer, 760362) in the presence of adenosine-5′-triphosphate (ATP) and varying concentrations of the test compound in 100 mM 2-[4-(2-hydroxyethyl)piperazin-1-yl]ethanesulfonic acid (HEPES), pH 7.5, 10 mM MgCl2, 0.015% Brij-35, 1 mM dithiothreitol (DTT), 1.0% dimethylsulfoxide (DMSO). Assays were performed at 1.0 mM ATP or at ATP Km of the CDK enzymes in complex with Cyclin proteins. Reactions proceeded until between 10% to 20% total peptides were phosphorylated at room temperature (25° C.) and were terminated with 35 mM 2,2′,2″,2′″-(ethane-1,2-diyldinitrilo)tetraacetic acid (EDTA). Product was detected using the Caliper mobility shift detection method where the phosphorylated peptide (product) and substrate were electrophoretically separated and measured. Percent activity was plotted against log concentration of compound and points to generate an apparent IC50. The following CDK enzymes in complex with different cyclin proteins were used in these assays:CDK1/Cyclin B1, GST-tag (BPS, 40454), 1.5 nM used in the assayCDK2/Cyclin E (Eurofins, 14-475), 1.25 nM used in the assays

[2] = target: Cyclin-dependent kinase/G2/mitotic-specific cyclin- 1 (Homo sapiens, UniProt P06493); assay: Biochemical CDK Inhibition Assay
Chain of Cyclin-dependent kinase/G2/mitotic-specific cyclin- 1 (P06493 whole entry): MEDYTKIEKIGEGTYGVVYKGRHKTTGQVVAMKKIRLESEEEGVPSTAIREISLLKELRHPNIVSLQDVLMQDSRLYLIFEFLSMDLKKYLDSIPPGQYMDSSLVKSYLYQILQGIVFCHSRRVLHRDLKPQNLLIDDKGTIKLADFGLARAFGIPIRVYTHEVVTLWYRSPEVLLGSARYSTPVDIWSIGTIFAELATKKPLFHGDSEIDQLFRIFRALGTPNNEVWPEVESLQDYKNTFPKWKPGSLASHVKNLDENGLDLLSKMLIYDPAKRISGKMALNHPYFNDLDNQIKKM
Chain of Cyclin-dependent kinase/G2/mitotic-specific cyclin- 1 (P14635 whole entry, further chain): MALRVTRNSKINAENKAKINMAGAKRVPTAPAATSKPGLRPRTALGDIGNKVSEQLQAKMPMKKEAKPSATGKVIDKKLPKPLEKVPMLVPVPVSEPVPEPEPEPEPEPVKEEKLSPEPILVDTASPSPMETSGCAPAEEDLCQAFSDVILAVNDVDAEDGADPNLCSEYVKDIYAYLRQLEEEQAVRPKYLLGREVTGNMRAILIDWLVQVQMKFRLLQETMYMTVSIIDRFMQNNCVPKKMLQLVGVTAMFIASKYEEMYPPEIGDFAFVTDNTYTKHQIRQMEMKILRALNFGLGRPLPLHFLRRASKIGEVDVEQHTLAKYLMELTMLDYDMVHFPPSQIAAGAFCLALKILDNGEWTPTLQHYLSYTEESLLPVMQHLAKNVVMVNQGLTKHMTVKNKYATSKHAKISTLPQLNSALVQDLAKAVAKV
Experimental: as §1

| SMILES | IC50 [1] [nM] | IC50 [2] [nM] |
| --- | --- | --- |
| C[C@H](O)c1cnc(Nc2cc([C@H]3CC[C@@H](OC(=O)N4CCC4(C)C)C3)[nH]n2)cn1 [US20250074895, Compound 52] | < 10 | < 100 |
| CC1(NC(=O)O[C@@H]2CC[C@H](c3cc(Nc4cnc(CO)cn4)n[nH]3)C2)CC1 [US20250074895, Compound 55] | < 10 | < 100 |
| CC1(NC(=O)O[C@H]2CC[C@@H](c3cc(Nc4cnccn4)n[nH]3)C2)CC1 [US20250074895, Compound 57] | < 10 | < 100 |

Further lines, results first:

| IC50 [1] [nM] | IC50 [2] [nM] | SMILES |
| --- | --- | --- |
| < 10 | < 100 | COc1nncc(Nc2cc([C@H]3CC[C@@H](OC(=O)NC4(C)CC4)C3)[nH]n2)n1 [US20250074895, Compound 54] |
| < 10 | < 100 | COc1nccc(Nc2cc([C@@H]3CC[C@H](OC(=O)NC4(C)CC4)C3)[nH]n2)n1 [US20250074895, Compound 58] |
